# Results reported in paper PMC10083169, “A cationic motif upstream Engrailed2 homeodomain controls cell internalization through selective interaction with heparan sulfates” (Nature Communications, 2023).
# What was measured:
# ExtHD = molecular target: T1, ExtHD (Gallus gallus, UniProt Q05917); experiment: ITC, titration with POPG LUVs; assay type: binding; conditions: read-out: Kd^apparent
# T1 construct: gene EN2; homeodomain plus 17-residue basic N-terminal extension (183-259); E. coli SE1, His6-Cherry fusion removed by PreScission, GPAS left at N-terminus (GPCAS with biotin-PEG2-maleimide for biotinylated form)
# T1 sequence (Q05917 183-259): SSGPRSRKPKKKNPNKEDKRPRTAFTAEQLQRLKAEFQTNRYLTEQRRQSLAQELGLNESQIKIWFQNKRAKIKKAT
# Excerpt: ITC, titration with POPG LUVs on ExtHD
# HD = molecular target: T2, HD (Gallus gallus, UniProt Q05917); experiment: ITC, titration with POPG LUVs; assay type: binding; conditions: read-out: Kd^apparent
# T2 construct: gene EN2; homeodomain alone (200-259); E. coli SE1, His6-Cherry fusion removed by PreScission, GPAS left at N-terminus
# T2 sequence (Q05917 200-259): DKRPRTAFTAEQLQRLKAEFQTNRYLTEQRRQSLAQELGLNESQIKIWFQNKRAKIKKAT
# Excerpt: ITC, titration with POPG LUVs on HD
smiles,measurement,setting,value
"CCCCCCCC/C=C\CCCCCCCC(=O)O[C@H](COC(=O)CCCCCCCCCCCCCCC)COP(=O)(O)OCC(O)CO (mixture of isomers) [POPG, 1-palmitoyl-2-oleoyl-sn-glycero-3-phospho-(1’-rac-glycerol)]",Kd,ExtHD,6.8 ± 2.3 µM
same,Kd,HD,7.5 ± 2.5 µM
